The text below walks through data of article PMC6770006, “Novel Heat Shock Protein 90 Inhibitors Suppress P-Glycoprotein Activity and Overcome Multidrug Resistance in Cancer Cells” (International Journal of Molecular Sciences, 2019).

Entries after “also recorded” stand apart in the source; their conditions may differ. A value given as a limit tells only on which side of the number the result lay.

The subject of series [1] is NCI-H460/R cells. The series can be described thus: MTT assay, cell growth inhibition, NCI-H460/R (MDR). The class given is cell-based, human. The following applies: for IC50: Homo sapiens, NCI-H460, 72 h, MDR cells; for Efficacy in MDR NCI-H460/R cells compared with sensitive NCI-H460: 72 h. Here is the method: (§1) A series of 3-aryl-naphtho[2,3-d]isoxazole-4,9-diones were synthesized (Scheme 1, Figure 1) and their growth inhibition activity was tested in vitro on human non-small cell lung carcinoma NCI-H460, colorectal carcinoma DLD1 and their corresponding MDR cells (NCI-H460/R and DLD1-TxR, respectively), as well as normal embryonic lung fibroblasts MRC-5. The differences in cell growth inhibition between cancer and normal cells obtained by the MTT assay after 72 h treatment are presented in Table 1. The effect of compounds is presented as IC50 values that correspond to the 50% of cell growth inhibition.
Human colorectal carcinoma (DLD1), non-small cell lung carcinoma (NCI-H460), and normal embryonic lung fibroblast (MRC-5) cell lines were purchased from the American Type Culture Collection, Rockville, MD. P-gp overexpressing multidrug resistant DLD1-TxR cells were selected by continuous exposure to stepwise increasing concentrations of paclitaxel from DLD1 cells, while NCI-H460/R cells were selected from NCI-H460 cells after DOX selective pressure. MDR cancer cell lines, DLD1-TxR and NCI-H460/R, and their sensitive counterparts were maintained in RPMI 1640 medium supplemented with 10% FBS, 2 mM L-glutamine, and 10,000 U/mL penicillin, 10 mg/mL streptomycin, 25 mg/mL amphotericin B solutions. MRC-5 cells were cultured in DMEM supplemented with 10% FBS, 4 g/L glucose, 2 mM L-glutamine and 5000 U/mL penicillin, 5 mg/mL streptomycin solution. All cell lines were sub-cultured at 72 h intervals using 0.25% trypsin/EDTA and seeded into a fresh medium at 8000 cells/cm^2. All cell lines were maintained at 37 °C in a humidified 5% CO2 atmosphere.
(§2) Cell viability was assessed by the MTT assay (AppliChem GmbH, Darmstadt, Germany). Cells grown in 25 cm^2 tissue flasks were trypsinized and 1000 cells/well were seeded into flat-bottomed 96-well tissue culture plates and incubated overnight. Subsequently, the cells were treated with increasing concentrations of Hsp90 inhibitors for 72 h: compound 3 (0.1–2.5 µM), compound 4 (0.25–5 µM), compound 5 (0.5–25 µM), compound 6 (50–1000 nM), compound 7 (10–250 nM), compound 8 (0.25–5 µM), compound 9 (10–250 nM), compound 10 (0.5–25 µM), compound 13 (0.5–10 µM), compound 14 (1–25 µM), and compound 15 (10–250 nM). […] After treatment, MTT was added to each well in a final concentration of 0.2 mg/mL for 4 h. Formazan product was dissolved in 200 µl of DMSO, and the absorbance was measured at 540 nm using an automatic LKB 5060-006 Micro Plate Reader (Vienna, Austria). IC50 value was defined as a concentration of the drug that inhibited cell growth by 50% and was calculated by nonlinear regression analysis using GraphPad Prism 6.0 for Windows (La Jolla, CA, USA). Relative selectivity towards cancer cells was calculated as a relation between IC50 value obtained in MRC-5 cells and an average IC50 value from four tested cancer cell lines.

The target of series [2] is P-gp (Homo sapiens, UniProt P08183). As to the kind of experiment: Rhodamine 123 accumulation assay (P-gp activity, flow cytometry). Type of series: cell-based. On the set-up: P-gp overexpressing multidrug resistant DLD1-TxR cells were selected by continuous exposure to stepwise increasing concentrations of paclitaxel from DLD1 cells; endogenous in cells; host or cells: NCI-H460/R and DLD1-TxR (drug-selected MDR human cancer cells). As to conditions: MDR NCI-H460/R and DLD1-TxR cells, 30 min, one concentration per compound (100 nM-10 µM), Figure 3a. Here is the method:
To study the effect of Hsp90 inhibitors on P-gp activity in MDR cancer cells, intracellular accumulation of the P-gp substrate rhodamine 123 (Rho 123) was analyzed by flow cytometry after 30 min treatment (Figure 3a). A well-known inhibitor of P-gp activity, tariquidar (TQ), was included as a positive control.
The accumulation of Rho 123, a fluorescent P-gp substrate, was measured by flow cytometry. The intensity of the fluorescence is proportional to Rho 123 accumulation in the cell. All cell lines were seeded in adherent 6-well plates and grown overnight. DLD1-TxR and NCI-H460/R cells were treated for 30 min with the following concentrations of Hsp90 inhibitors: 500 nM compound 3, 1 µM compound 4, 10 µM compound 5, 500 nM compound 6, 500 nM compound 7, 1 µM compound 8, 500 nM compound 9, 1 µM compound 10, 1 µM compound 13, 10 µM compound 14, 100 nM compound 15. TQ (10 nM) was used as a positive control for Rho 123 accumulation. Rho 123 (5 μM) was simultaneously added with the investigated compounds and the cells were incubated at 37 °C in 5% CO2 for 30 min. The cells were then trypsinized, pelleted by centrifugation, washed with PBS and placed in ice-cold PBS. The samples were kept on ice in the dark until the analysis on CyFlow Space Partec flow cytometer (Sysmex Partec GmbH, Görlitz, Germany). The fluorescence of Rho 123 was detected on fluorescence channel 1 (FL1-H) at 530 nm. A minimum of 10,000 events were collected for each sample and the obtained results were analyzed using Summit software.

Series [3] relates to Hsp90. Details: method as in PMID 22538015. As to conditions: read-out: Hsp90 Affinity binding; cited from earlier work.
Series [4] concerns DLD1 cells. As to the kind of experiment: MTT assay, cell growth inhibition, DLD1. Type of series: cell-based. The following applies: Homo sapiens, DLD-1, 72 h. Here is the method:
as §1, §2

For series [5], the system named is NCI-H460, NCI-H460/R, DLD1, DLD1-TxR cells. As to the kind of experiment: MTT assay, grouping of inhibitors by IC50 over the cancer cell lines. As to conditions: Homo sapiens, Figure 2b, read-out: IC50 values (grouping for Pearson correlation). The class given is cell-based. Here is the method: When the IC50 values obtained by the MTT assay were compared to Hsp90 affinity binding IC50 values (Table 1), a positive Pearson correlation (r > 0.5) was found for all cancer cell lines (Figure 2b).
as §2

For series [6], the system named is MRC-5 cells. The series can be described thus: MTT assay, normal embryonic lung fibroblasts MRC-5. The class given is cell-based, human. As to conditions: for IC50: Homo sapiens, MRC5, MTT, 72 h, normal fibroblasts, read-out: Cell growth inhibition IC50, MRC-5; for Relative Selectivity: IC50 in MRC-5 cells / average IC50 of four cancer cell lines. Here is the method:
as §1, §2

Sequence of P-gp (P08183 whole entry): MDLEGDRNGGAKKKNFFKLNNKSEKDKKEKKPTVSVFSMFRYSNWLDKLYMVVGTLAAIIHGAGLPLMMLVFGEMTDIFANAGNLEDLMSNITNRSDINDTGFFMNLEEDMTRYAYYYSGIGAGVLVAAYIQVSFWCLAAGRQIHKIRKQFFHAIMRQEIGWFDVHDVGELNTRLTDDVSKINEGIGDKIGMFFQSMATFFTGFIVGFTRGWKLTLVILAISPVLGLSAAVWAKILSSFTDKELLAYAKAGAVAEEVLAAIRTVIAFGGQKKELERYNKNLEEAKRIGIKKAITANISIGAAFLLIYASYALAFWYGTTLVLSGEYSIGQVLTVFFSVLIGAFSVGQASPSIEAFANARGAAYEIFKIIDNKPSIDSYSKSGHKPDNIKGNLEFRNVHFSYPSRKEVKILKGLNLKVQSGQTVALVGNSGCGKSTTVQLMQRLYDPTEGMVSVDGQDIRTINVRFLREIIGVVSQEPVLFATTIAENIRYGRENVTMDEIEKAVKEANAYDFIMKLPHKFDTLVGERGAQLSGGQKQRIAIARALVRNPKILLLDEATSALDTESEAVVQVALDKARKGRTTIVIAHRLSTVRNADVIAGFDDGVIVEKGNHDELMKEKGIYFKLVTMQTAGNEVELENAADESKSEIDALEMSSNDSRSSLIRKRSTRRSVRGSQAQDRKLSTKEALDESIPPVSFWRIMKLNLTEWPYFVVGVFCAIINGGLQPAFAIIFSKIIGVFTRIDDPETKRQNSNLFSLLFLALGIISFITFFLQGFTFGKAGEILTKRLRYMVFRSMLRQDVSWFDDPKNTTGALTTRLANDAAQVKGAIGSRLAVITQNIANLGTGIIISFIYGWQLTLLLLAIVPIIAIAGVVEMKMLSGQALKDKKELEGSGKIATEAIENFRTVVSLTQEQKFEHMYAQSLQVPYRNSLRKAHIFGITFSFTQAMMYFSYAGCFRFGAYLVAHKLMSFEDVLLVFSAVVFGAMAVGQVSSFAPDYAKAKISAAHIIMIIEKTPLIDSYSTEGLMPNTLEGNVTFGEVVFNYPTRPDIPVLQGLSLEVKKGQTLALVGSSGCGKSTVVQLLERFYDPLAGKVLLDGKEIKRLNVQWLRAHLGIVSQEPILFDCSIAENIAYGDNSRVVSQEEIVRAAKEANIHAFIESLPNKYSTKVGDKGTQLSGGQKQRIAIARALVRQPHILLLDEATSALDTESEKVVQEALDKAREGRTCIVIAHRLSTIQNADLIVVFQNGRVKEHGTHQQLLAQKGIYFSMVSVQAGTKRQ

In the case of `O=C1c2ccccc2C(=O)c2c(-c3cccnc3)noc21` [Compound 9], the IC50 was 172 ± 5 nM in series [1]; 540 nM in series [3]; 45 ± 1 nM in series [4]; under 1000 nM in series [5]; 302 ± 8 nM in series [6]. In addition, in series [2], the “P-gp activity / Rho 123 accumulation” value is on record as “most prominent effect in both MDR cell lines”. In series [6], the “Relative Selectivity” value is 3.33.
On to `O=C1c2ccccc2C(=O)c2c(-c3ccncc3)noc21` [Compound 7], for which the “Efficacy in MDR NCI-H460/R cells compared with sensitive NCI-H460” value in series [1] is given as “evaded resistance in both MDR cancer cell lines”. Further, the IC50 in series [1] was 231 ± 6 nM; in series [3], 390 nM; in series [4], 156 ± 4 nM; in series [5], under 1000 nM; in series [6], 599 ± 15 nM. For the same compound, the “P-gp activity / Rho 123 accumulation” value in series [2] was “most prominent effect in both MDR cell lines”. In addition, the “Relative Selectivity” value in series [6] came to 3.31.
With `O=C1c2ccccc2C(=O)c2c(-c3ccccc3O)noc21` [Compound 5], the “Efficacy in MDR NCI-H460/R cells compared with sensitive NCI-H460” value in series [1] was “further compromised in the presence of MDR phenotype”. Besides, the IC50 was 25500 ± 925 nM in series [1]; 1550 nM in series [3]; 5680 ± 163 nM in series [4]; at least 1000 nM in series [5]; 128000 ± 39000 nM in series [6]. The “P-gp activity / Rho 123 accumulation” value in series [2] is “significant beneficial effect on P-gp inhibition; also recorded: most prominent effect in both MDR cell lines”. Also, the “Relative Selectivity” value in series [6] is reported as 10.64.
